Assay [1] has as its system Jurkat human T-cell leukemia cells. Kind of assay: Cell-titer-blue viability, Jurkat. Type of assay: cell-based. As to conditions: for selectivity for Jurkat IC50 Raji/IC50 Jurkat (Factor of Selectivity for T-cell Leukemia): IC50 on Raji cells/IC50 on Jurkat cells; for IC50: in presence of sulfobutyl ether-β-cyclodextrin, 72 h. On the procedure: (§1) The anti-tumoral efficacy of a panel of 7 different Au complexes, ATM/Disulfiram, the standard therapeutic Cisplatin and well known antitumoral CuDTC (see Table 2) was tested on Jurkat human T-cell leukemia and Raji human B-cell lymphoma cells. […] 24 h later, test compound were added in the presence of sulfobutyl ether-β-cyclodextrin (30 fold disulfiram concentration) in various dilutions (100-0.01 μM). All concentrations were applied in triplicate. […] The “Factor of Selectivity for T-cell Leukemia” was calculated by division of IC50 on Raji cells/IC50 on Jurkat cells.

The subject of assay [2] is Raji human B-cell lymphoma cells. The experiment in a line: Cell-titer-blue viability, Raji. Type of assay: cell-based. As to conditions: in presence of sulfobutyl ether-β-cyclodextrin, 72 h. The protocol: as §1
The test system of the next assay is H209 SCLC cells. Kind of assay: H209 SCLC tumor relapse model in mice. Type of assay: in vivo, nu/nu mice. As to conditions: after 6 weeks DKFZ-00608 15 mg/kg daily in 60 mM sulfobutyl ether beta-cyclodextrin. On the procedure: The inventors wanted to compare the efficacy of DKFZ-00608 on human SCLC tumors with standard therapy in vivo. […] Followed by DKFZ-00608 in 60 mM sulfobutyl ether beta-cyclodextrin (15 mg/kg daily) for 6 weeks • DKFZ-00608 in 60 mM sulfobutyl ether beta-cyclodextrin (15 mg/kg daily) for 6 weeks. Tumor sizes were determined 2× per week for the first 9 weeks, thereafter, once per week.

SMILES strings stand for the structures.

On to `N.N.[Cl][Pt][Cl]` [Cisplatin], for which, in assay [1], the “selectivity for Jurkat IC50 Raji/IC50 Jurkat (Factor of Selectivity for T-cell Leukemia)” value was 4.45 and the IC50 was found to be 610 nM. The IC50 in assay [2] was found to be 2720 nM.

On to `CCN(CC)C(=S)[S-].CCN(CC)C(=S)[S-].[Cu+2]` [CuDTC], for which the “selectivity for Jurkat IC50 Raji/IC50 Jurkat (Factor of Selectivity for T-cell Leukemia)” value in assay [1] was found to be 2.62. Also, the half-inhibitory concentration (IC50) stood at 10 nM in assay [1] and 20 nM in assay [2].

For the molecule `CCN(CC)/C1=[SH]/[Au][S]/C(N(CC)CC)=[SH]\[Au][S]1` [DKFZ-00608], in the assay with H209 SCLC cells, the “animals with no palpable tumors” value is 6 out of 10.

Values taken from patent US10953099B2, “Compositions comprising a metal source, dithiocarbamate and cyclodextrin” (priority 2016, dated 2021).
